This passage reports Ki and EC50 results from US20110275692A1, “SUBSTITUTED GAMMA LACTAMS AS THERAPEUTIC AGENTS” (ALLERGAN, INC., priority 2005, published 2011).

By Ki is commonly meant the dissociation constant of the complex between target and ligand, obtained from inhibition or displacement. Broadly, the EC50 is the midpoint of the concentration-response curve.

In test [1] the target is T1, EP4 receptors (Homo sapiens, UniProt P35408).
T1 construct: expressed in transfected cells; host or cells: HEK-293
Kind of test: EP4 radioligand binding ([3H]PGE2). Here is the method:
HEK-293 cells stably expressing the human or feline FP receptor, or EP1, EP2, or EP4 receptors were washed with TME buffer, scraped from the bottom of the flasks, and homogenized for 30 sec using a Brinkman PT 10/35 polytron. TME buffer was added to achieve a final 40 ml volume in the centrifuge tubes (the composition of TME is 100 mM TRIS base, 20 mM MgCl2, […]; 10N HCl is added to achieve a pH of 7.4).
The cell homogenate was centrifuged at 19000 r.p.m. for 20 min at 4° C. using a Beckman Ti-60 rotor. The resultant pellet was resuspended in TME buffer to give a final 1 mg/ml protein concentration, as determined by Biorad assay. Radioligand binding competition assays vs. [^3H-]17-phenyl PGF2α (5 nM) were performed in a 100 μl volume for 60 min. Binding reactions were started by adding plasma membrane fraction. The reaction was terminated by the addition of 4 ml ice-cold TRIS-HCl buffer and rapid filtration through glass fiber GF/B filters using a Brandel cell harvester. The filters were washed 3 times with ice-cold buffer and oven dried for one hour.
[^3H-]PGE2 (specific activity 180 Ci mmol) was used as the radioligand for EP receptors. [^3H] 17-phenyl PGF2α was employed for FP receptor binding studies. […] 17-phenyl PGF2α and non-specific binding determined with 10^−5M of unlabeled PGE2, or 17-phenyl PGF2α, according to receptor subtype studied.

For test [2], the target named is T2, hEP3A/Gqi5 (Homo sapiens, UniProt P43115).
T2 construct: expressed in transfected cells; host or cells: HEK-293(EBNA)
T2 sequence (P43115 1-390): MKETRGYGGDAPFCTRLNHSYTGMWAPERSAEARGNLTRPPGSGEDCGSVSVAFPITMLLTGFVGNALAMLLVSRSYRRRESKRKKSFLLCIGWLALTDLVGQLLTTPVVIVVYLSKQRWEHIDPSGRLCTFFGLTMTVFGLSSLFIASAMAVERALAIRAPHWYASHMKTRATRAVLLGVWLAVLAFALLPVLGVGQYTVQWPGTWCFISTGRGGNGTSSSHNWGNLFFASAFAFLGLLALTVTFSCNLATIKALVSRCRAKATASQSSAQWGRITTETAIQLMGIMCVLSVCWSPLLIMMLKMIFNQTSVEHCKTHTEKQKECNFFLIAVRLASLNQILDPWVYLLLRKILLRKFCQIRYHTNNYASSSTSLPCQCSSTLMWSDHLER
Kind of test: Other receptors: hEP3A FLIPR. In kind it is cell-based. Here is the method:
(§1) HEK-293(EBNA) cells, stably expressing one type or subtype of recombinant human prostaglandin receptors (prostaglandin receptors expressed: hDP/Gqs5; hEP1; hEP2/Gqs5; hEP3A/Gqi5; hER4/Gqs5; hFP; hIP; hTP), were cultured in 100 mm culture dishes in high-glucose DMEM medium containing 10% fetal bovine serum, 2 mM 1-glutamine, 250 μg/ml geneticin (G418) and 200 μg/ml hygromycin B as selection markers, and 100 units/ml penicillin G, 100 μg/ml streptomycin and 0.25 μg/ml amphotericin B.
(§2) Cells were seeded at a density of 5×10^4 cells per well in Biocoat® Poly-D-lysine-coated black-wall, clear-bottom 96-well plates (Becton-Dickinson) and allowed to attach overnight in an incubator at 37° C. Cells were then washed two times with HBSS-HEPES buffer (Hanks Balanced Salt Solution without bicarbonate and phenol red, 20 mM HEPES, pH 7.4) using a Denley Cellwash plate washer (Labsystems). […]
(§3) Cells were excited with an Argon laser at 488 nm, and emission was measured through a 510-570 nm bandwidth emission filter (FLIPR™, Molecular Devices, Sunnyvale, Calif.). […] The peak increase in fluorescence intensity was recorded for each well. […] The peak fluorescence change in each drug-containing well was then expressed relative to the controls. […]

Test [3] deals with T3, EP2 (Homo sapiens, UniProt P43116). Put plainly: EP2 cAMP. The test is classed as cell-based.
Test [4] deals with T4, hEP2/Gqs5 (Homo sapiens, UniProt P43116).
T4 construct: expressed in transfected cells; host or cells: HEK-293(EBNA)
Put plainly: EP2 FLIPR calcium signal. The test is classed as cell-based. As to conditions: HEK-293(EBNA) cells. Here is the method: as §1, §2, §3

Test [5] addresses T3, EP2. Kind of test: EP2 competition binding ([3H]PGE2). As to conditions: HEK 293 cells stably expressing human EP2, [3H]PGE2. On the set-up: expressed in transfected cells; host or cells: HEK 293. Here is the method: Competition binding experiments were performed in a medium containing Hank's balanced salt solution, Hepes 20 mM, pH 7.3, membranes (˜60 μg protein) or 2×10^5 cells from HEK 293 cells stably expressing human EP2 receptors, [^3H]PGE2 (10 nM) and various concentrations of test compounds in a total volume of […] Reaction mixtures were incubated at 23° C. for 60 min, and were filtered over Whatman GF/B filters under vacuum. Filters were washed three times with 5 ml ice-cold buffer containing 50 mM Tris/HCl (pH 7.3). Non-specific binding was estimated in the presence of excess unlabeled PGE2 (10 μM). Binding data fitted to the binding model for a single class of binding sites, using nonlinear regression analysis. IC50 values thus obtained were converted to Ki using the equation of Ki=(IC50/(1+[L]/KD) where [L] represents PGE2 concentration (10 nM) and KD the dissociation constant for [^3H]PGE2 at human EP2 receptors (40 nM). […]
The cell homogenate was centrifuged at 19000 r.p.m. for 20 min at 4° C. using a Beckman Ti-60 rotor. The resultant pellet was resuspended in TME buffer to give a final 1 mg/ml protein concentration, as determined by Biorad assay. […]
[^3H-]PGE2 (specific activity 180 Ci mmol) was used as the radioligand for EP receptors. […] 17-phenyl PGF2α and non-specific binding determined with 10^−5M of unlabeled PGE2, or 17-phenyl PGF2α, according to receptor subtype studied.

T3 sequence (P43116 whole entry): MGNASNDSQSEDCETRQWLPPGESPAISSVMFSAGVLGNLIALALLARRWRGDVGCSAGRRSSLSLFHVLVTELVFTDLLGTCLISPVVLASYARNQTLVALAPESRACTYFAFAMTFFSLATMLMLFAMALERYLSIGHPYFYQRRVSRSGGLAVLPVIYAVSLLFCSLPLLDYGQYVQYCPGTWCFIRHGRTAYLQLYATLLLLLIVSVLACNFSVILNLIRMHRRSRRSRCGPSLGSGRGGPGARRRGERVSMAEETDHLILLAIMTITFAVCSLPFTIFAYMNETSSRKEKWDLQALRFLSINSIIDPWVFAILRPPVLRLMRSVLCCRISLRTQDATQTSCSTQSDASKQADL
T4 sequence (P43116 whole entry): as above
T1 sequence (P35408 whole entry): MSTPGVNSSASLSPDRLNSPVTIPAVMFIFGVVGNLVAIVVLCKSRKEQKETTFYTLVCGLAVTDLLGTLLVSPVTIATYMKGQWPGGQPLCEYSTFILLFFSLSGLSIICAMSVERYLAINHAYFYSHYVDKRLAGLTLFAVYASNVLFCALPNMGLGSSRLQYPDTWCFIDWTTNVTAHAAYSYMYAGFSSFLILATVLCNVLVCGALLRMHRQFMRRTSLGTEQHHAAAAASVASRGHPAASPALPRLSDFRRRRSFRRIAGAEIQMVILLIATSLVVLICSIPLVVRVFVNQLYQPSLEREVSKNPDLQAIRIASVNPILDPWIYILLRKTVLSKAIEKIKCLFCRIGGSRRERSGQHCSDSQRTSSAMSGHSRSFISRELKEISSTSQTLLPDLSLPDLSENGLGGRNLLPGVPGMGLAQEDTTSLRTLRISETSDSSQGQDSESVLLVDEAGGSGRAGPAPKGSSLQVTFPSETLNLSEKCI

On to `CCCCCC(O)c1ccc(N2C(=O)CC[C@@H]2C=CCc2ccc(C(=O)O)s2)cc1` (stereo partly drawn) [Example 16, 5-((E and Z)-3-{(R)-1-[4-(1-Hydroxy-hexyl)-phenyl]-5-oxo-pyrrolidin-2-yl}-allyl)-thiophene-2-carboxylic acid], for which the figures for the Ki in test [1] and in test [5] were above 10 µM and 1.38 µM, respectively. Besides, the EC50 was 1.41 µM in test [2], 0.015 µM in test [3] and 0.226 µM in test [4].
